In brackets after ≈: the same amount, converted by molar mass. Like-named read-outs stand apart in the source and are kept apart here.
Test system: Moraxella catarrhalis
Experiment: Broth microdilution MIC testing (CLSI)
Type: cell-based
Conditions: for MIC: read-out: MIC (lowest concentration of drug that inhibited visible growth)
Protocol: In this study, to evaluate the spectrum of activity, cannabidiol (CBD) was profiled against Moraxella. Testing was conducted following guidelines recommended by the Clinical and Laboratory Standards Institute (CLSI, 1-4), using vancomycin, meropenem, levofloxacin, and gentamicin as comparators for testing aerobic bacteria.
Test agents were supplied by Micromyx. Stock solutions of all compounds were prepared on the first day of testing at 101× the highest test concentration using solvents recommended by CLSI. CBD was prepared fresh on each of testing.
Prior to testing, Moraxella were streaked from frozen vials onto Trypticase Soy Agar (TSA) with 5% sheep blood (Becton Dickinson [BD]; Sparks, Md.; Lot No. 9192895), and incubated at 35° C. overnight.
Cation-adjusted Mueller-Hinton broth (CAMHB; BD; Lot No. 8190586) was used for MIC testing.
MIC values were determined using a broth microdilution procedure described by CLSI (1-4). Automated liquid handlers (Multidrop 384, Labsystems, Helsinki, Finland; Biomek 2000 and Biomek FX, Beckman Coulter, Fullerton, Calif.) were used to conduct serial dilutions and liquid transfers.
To prepare the drug mother plates, which would provide the serial drug dilutions for the replicate daughter plates, the wells of columns 2 through 12 of standard 96-well microdilution plates (Costar 3795) were filled with 150 μl of the designated diluent for each row of drug. The test article and comparator compounds (300 μl at 101× the highest concentration to be tested) were dispensed into the appropriate wells in column 1. The Biomek 2000 was then used to make 2-fold serial dilutions in the mother plates from column 1 through column 11. The wells of column 12 contained no drug and served as the organism growth control wells for the assay.
The daughter plates were loaded with 190 μL per well of the appropriate test medium for the tested organism using the Multidrop 384. The daughter plates were completed on the Biomek FX instrument which transferred 2 μL of drug solution from each well of a mother plate to the corresponding well of each daughter plate in a single step.
A standardized inoculum of each test organism was prepared per CLSI methods (1-4). The inoculum for each organism was dispensed into sterile reservoirs divided by length (Beckman Coulter), and the Biomek 2000 was used to inoculate the plates. Daughter plates were placed on the Biomek 2000 work surface in reverse orientation so that inoculation took place from low to high drug concentration. Plates were inoculated with 10 μL of the inoculum resulting in a final cell density of approximately 5×10^5 CFU/mL per well.
The plates for testing of Moraxella were stacked 3 to 4 high, covered with a sterile lid, and incubated at 35° C. for the time periods specified in CLSI (1-4). Plates were incubated for approximately 16 to 20 hr. Following incubation, the microplates were removed from the incubator and viewed from the bottom using a plate viewer. […] The MIC was read and recorded as the lowest concentration of drug that inhibited visible growth of the organism.

[1] = Moraxella catarrhalis isolate MMX 3782, CAMHB, 35° C., approximately 16 to 20 hr

Row | Compound | MIC [1] | also measured
1 | C[C@H]1COc2c(N3CCN(C)CC3)c(F)cc3c(=O)c(C(=O)O)cn1c23 [LVX, levofloxacin] | 0.03 µg/mL (≈ 0.083 µM) | 
2 | gentamicin |  | MIC (lowest concentration of drug that inhibited visible growth) [1]: 0.25 µg/mL
3 | C[C@@H](O)[C@H]1C(=O)N2C(C(=O)O)=C(S[C@@H]3CN[C@H](C(=O)N(C)C)C3)[C@H](C)[C@H]12 [MEM, meropenem] | ≤ 0.03 µg/mL | 
4 | C=C(C)C1CCC(C)=CC1c1c(O)cc(CCCCC)cc1O (centres unmarked) [CBD, 2-[3-methyl-6-(1-methylethenyl)-2-cyclohexen-1-yl]-5-pentyl-1,3-benzenediol] | 1 µg/mL (≈ 3.18 µM) | 
5 | CN[C@H](CC(C)C)C(=O)N[C@H]1C(=O)N[C@@H](CC(N)=O)C(=O)N[C@H]2C(=O)N[C@H]3C(=O)N[C@H](C(=O)N[C@H](C(=O)O)c4cc(O)cc(O)c4-c4cc3ccc4O)[C@H](O)c3ccc(c(Cl)c3)Oc3cc2cc(c3O[C@@H]2O[C@H](CO)[C@@H](O)[C@H](O)[C@H]2O[C@H]2C[C@](C)(N)[C@H](O)[C@H](C)O2)Oc2ccc(cc2Cl)[C@H]1O [VAN, vancomycin] |  | MIC (Moraxella catarrhalis): 32 µg/mL (≈ 22.1 µM)
